Assay results published in US20250304635A1, “BIRINAPANT POLYMORPH H” (Medivir AB, priority 2022, published 2025).

How the values were obtained:
Assay type in all cases: physicochemical
TGA study = conditions: between about 25° C. and 300° C.
Experimental: TGA analysis was performed using a Mettler-Toledo TGA/DSC3 analyzer. Temperature and enthalpy adjustments were performed using indium, tin, and zinc, and then verified with indium. The balance was verified with calcium oxalate. The sample was placed in an open aluminum pan. The pan was hermetically sealed, the lid pierced, and then inserted into the TG furnace. A weighed aluminum pan configured as the sample pan was placed on the reference platform. The furnace was heated under nitrogen. Each sample was heated from ambient temperature to 350° C. at 10° C./min. The thermograms were plotted by reference temperature (x-axis) and results were reported according to sample temperatures. Briefly, a sample of biripant Form H was heated from about 25° C. to about 400° C. […] Between about 340° C. and 400° C., weight loss was observed, corresponding to the thermal decomposition of birinapant.

[1] = Stability study: material left open to air at room temperature and exposed to light for one month (HPLC, Karl Fischer); conditions: room temperature, exposed to light
Experimental: A stability study of birinapant form H was performed by leaving the material open to air at room temperature and exposed to light for one month. […] A stability study of birinapant form H was performed by leaving the material open to air at room temperature and exposed to light for one month.

[2] = Dynamic vapor sorption (DVS) study; design: Hysteresis: unit not given here; conditions: 25° C.
Experimental: Automated vapor sorption (VS) data were collected on a Surface Measurement System DVS Intrinsic instrument. Samples were not dried prior to analysis. Sorption and desorption data were collected over a range from 5% to 95% RH at 10% RH increments under a nitrogen purge. The equilibrium criterion used for analysis was less than 0.0100% weight change in 5 minutes with a maximum equilibration time of 3 hours. Data were not corrected for the initial moisture content of the samples. This study was performed at a temperature of 25° C., and the relative humidity was cycled between about 5% and about 95%.

[3] = Stability studies under elevated temperature and relative humidity; crystalline form by XRPD, birefringence by polarized light microscopy
Experimental: XRPD patterns were collected with a PANalytical Empyrean diffractometer using an incident beam of Cu radiation produced using a long, fine-focus source. An elliptically graded multilayer mirror was used to focus Cu Kα X-rays through the specimen and onto the detector. Prior to analysis, a silicon specimen (NIST SRM 640e) was analyzed to verify the observed position of the Si 111 peak is consistent with the NIST-certified position. A specimen of the sample was sandwiched between 3-μm-thick films and analyzed in transmission geometry. A beam-stop, short antiscatter extension, and antiscatter knife edge were used to minimize the background generated by air. Soller slits for the incident and diffracted beams were used to minimize broadening and asymmetry from axial divergence. Diffraction patterns were collected using a scanning position-sensitive detector (X′Celerator) located 240 mm from the specimen and Data Collector software v. 5.5. Additional stability studies under elevated temperature and relative humidity (RH) conditions were also performed. Samples of birinapant form H were subjected to various temperature and humidity conditions for up to 105 days, and samples were taken at 17, 33, and 105 days. For each sample the identity of the crystalline form of the sample was assessed using XRPD and the birefringence of the sample was assessed using polarized light microscopy. Additionally, XRPD patterns for several time points are provided for the 60° C. study, the 30° C./62% RH study, and the 40° C./75% RH study in FIGS. 6, 7, and 8, respectively. The time points shown are at the start of the study (top pattern), after 17 days (pattern second from top), after 33 days (pattern third from top), and after 105 days (bottom pattern). Additional stability studies under elevated temperature and relative humidity (RH) conditions were also performed. Samples of birinapant form H were subjected to various temperature and humidity conditions for up to 182 days, and samples were taken at […]. For each sample the identity of the crystalline form of the sample was assessed using XRPD and the birefringence of the sample was assessed using polarized light microscopy. The “RESULT” column indicates the form that was observed. Additionally, XRPD patterns for several time points are provided for the 60° C. study, the 30° C./62% RH study, and the 40° C./75% RH study in FIG. 9. The spectra shown in FIG. 9 correspond to the 60° C. study after 33 days (top trace), the 60° C. study after 182 days (trace second from top), the 30° C./62% RH study after 33 days (trace third from top), the 30° C./62% RH study after 182 days (trace fourth from top), the 40° C./75% RH study after 33 days (trace fifth from top), and the 40° C./75% RH study after 182 days (trace sixth from top). A representative XRPD trace for birinapant form H prior to stressing is also shown for comparison (bottom trace).

[4] = as above; remark: listed apart in the source
[5] = target RH 95.0%, sample RH 95.7%

CC[C@H](NC(=O)[C@H](C)NC)C(=O)N1C[C@@H](O)C[C@H]1Cc1c(-c2[nH]c3cc(F)ccc3c2C[C@@H]2C[C@H](O)CN2C(=O)[C@H](CC)NC(=O)[C@H](C)NC)[nH]c2cc(F)ccc12 [birinapant Form H, (2S,2'S)—N,N′-((2S,2'S)-((3S,3'S,5R,5′R)-((6,6′-difluoro-1H,1′H-[2,2′-biindole]-3,3′-diyl)bis(methylene))bis(3-hydroxypyrrolidine-5,1-diyl))bis(1-oxobutane-1,2-diyl))bis(2-(methylamino)propanamide)]
weight loss on heating (TGA) (TGA study): No weight loss
appearance of the surface of the solid [1]: discolored slightly
purity of birinapant by HPLC after storage [1]: 99.9%
Cycle 1 Sorp Mass Change ([2]; target RH 5.0%, sample RH 5.1%): 0.000%
Cycle 1 Desorp Mass Change ([2]; target RH 5.0%, sample RH 5.5%): 0.020%
Hysteresis ([2]; target RH 15.0%): 0.192
Cycle 1 Sorp Mass Change ([2]; target RH 15.0%, sample RH 15.6%): 0.365%
Cycle 1 Desorp Mass Change ([2]; target RH 15.0%, sample RH 16.1%): 0.557%
Hysteresis ([2]; target RH 25.0%): 0.197
Cycle 1 Sorp Mass Change ([2]; target RH 25.0%, sample RH 25.1%): 0.732%
Cycle 1 Desorp Mass Change ([2]; target RH 25.0%, sample RH 25.6%): 0.929%
Hysteresis ([2]; target RH 35.0%): 0.237
Cycle 1 Sorp Mass Change ([2]; target RH 35.0%, sample RH 34.7%): 1.001%
Cycle 1 Desorp Mass Change ([2]; target RH 35.0%, sample RH 35.3%): 1.238%
Hysteresis ([2]; target RH 45.0%): 0.308
Cycle 1 Sorp Mass Change ([2]; target RH 45.0%, sample RH 45.0%): 1.224%
Cycle 1 Desorp Mass Change ([2]; target RH 45.0%, sample RH 45.6%): 1.532%
Hysteresis ([2]; target RH 55.0%): 0.379
Cycle 1 Sorp Mass Change ([2]; target RH 55.0%, sample RH 54.7%): 1.436%
Cycle 1 Desorp Mass Change ([2]; target RH 55.0%, sample RH 55.4%): 1.815%
Hysteresis ([2]; target RH 65.0%): 0.425
Cycle 1 Sorp Mass Change ([2]; target RH 65.0%, sample RH 64.7%): 1.652%
Cycle 1 Desorp Mass Change ([2]; target RH 65.0%, sample RH 65.5%): 2.078%
Hysteresis ([2]; target RH 75.0%): 0.428
Cycle 1 Sorp Mass Change ([2]; target RH 75.0%, sample RH 74.7%): 1.908%
Cycle 1 Desorp Mass Change ([2]; target RH 75.0%, sample RH 75.3%): 2.336%
Hysteresis ([2]; target RH 85.0%): 0.347
Cycle 1 Sorp Mass Change ([2]; target RH 85.0%, sample RH 84.9%): 2.263%
Cycle 1 Desorp Mass Change ([2]; target RH 85.0%, sample RH 86.0%): 2.610%
Cycle 1 Desorp Mass Change [2, 5]: 2.904%
Cycle 1 Sorp Mass Change [2, 5]: 2.904%
Observation ([3]; 30° C., 62% RH, 17 d, B = birefringence): fines, B
Observation ([3]; 30° C., 62% RH, 105 d, B = birefringence): white fines, B
Observation ([3]; 40° C., 75% RH, 17 d, B = birefringence): fines, B
Observation ([3]; 40° C., 75% RH, 33 d): white solids
Observation ([3]; 40° C., 75% RH, 105 d, B = birefringence): white fines, B
Observation ([3]; 60° C., 17 d, B = birefringence): fines, B
Observation ([3]; 60° C., 33 d): white to off-white in color
Observation ([3]; 60° C., 105 d): off-white
Observation ([3]; 80° C., 17 d, B = birefringence): fines, B sample faint pale yellow
Observation ([3]; 80° C., 33 d): pale yellow in color
Observation ([3]; RT, 98% RH, 18 d, B = birefringence): fines, B sample faint pale yellow
Observation ([3]; Table 5: 30° C., 62% RH, 17 d, B = birefringence): fines, B
Observation ([3]; Table 5: 30° C., 62% RH, 105 d, B = birefringence): white fines, B
Observation ([3]; Table 5: 30° C., 62% RH, 182 d, power outage 1 hour on day 125): white solids^d
Observation ([3]; Table 5: 40° C., 75% RH, 17 d, B = birefringence): fines, B
Observation ([3]; Table 5: 40° C., 75% RH, 33 d): white solids
Observation ([3]; Table 5: 40° C., 75% RH, 105 d, B = birefringence): white fines, B
Observation ([3]; Table 5: 40° C., 75% RH, 182 d, power outage 1 hour on day 125): white solids^e
Observation ([3]; Table 5: 60° C., 17 d, B = birefringence): fines, B
Observation ([3]; Table 5: 60° C., 33 d): white to off-white in color
Observation ([3]; Table 5: 60° C., 105 d): off-white
Observation ([3]; Table 5: 60° C., 182 d, temperature excursions: 105° C. 3 hours on day 113, power outage 1 hour on day 125): off-white to pale yellow^c
Observation ([3]; Table 5: 80° C., 17 d, B = birefringence): fines, B sample faint pale yellow
Observation ([3]; Table 5: 80° C., 33 d): pale yellow in color
Observation ([3]; Table 5: RT, 53% RH, 18 d, B = birefringence): fines, B sample faint pale yellow
Observation ([3]; Table 5: RT, 98% RH, 18 d, B = birefringence): fines, B sample faint pale yellow
Observation ([4]; 245° C., 1 hr): light tan solids
Observation ([4]; RT, 53% RH, 18 d, B = birefringence): fines, B sample faint pale yellow
Observation ([4]; Table 5: 245° C., 1 hr): light tan solids
